Measurements as given in ChEMBL document CHEMBL3045948, “Design, synthesis, and potential CNS activity of some new bioactive 1-(4-substituted-phenyl)-3-(4-oxo-2-methyl-4H-quinazolin-3-yl)-urea” (Med Chem Res, 2011).
Activity calls are given as the source filed them. The rule behind the calls is not given here.

Legend:
[1] = test system: Mus musculus; test: Anticonvulsant activity in ip dosed Mus musculus (mouse) assessed as protection against maximal electroshock-induced seizure measured after 0.5 hr; format: functional; conditions: read-out: MED
[2] = test system: Mus musculus; test: Anticonvulsant activity in ip dosed Mus musculus (mouse) assessed as protection against maximal electroshock-induced seizure measured after 4 hr; format: functional; conditions: read-out: MED
[3] = test system: Mus musculus; test: (§1) Neurotoxicity in ip dosed Mus musculus (mouse) after 0.5 hr by rotorod test; format: toxicity, organism-based; conditions: in vivo, 0.5 h
[4] = test system: Mus musculus; test: (§2) Neurotoxicity in ip dosed Mus musculus (mouse) after 4 hr by rotorod test; format: toxicity, organism-based; conditions: in vivo, 4 h
[5] = test system: Mus musculus; test: Anticonvulsant activity in ip dosed Mus musculus (mouse) assessed as protection against subcutaneous pentyleneterazole-induced seizure measured after 4 hr; format: functional; conditions: read-out: MED
[6] = test system: Mus musculus; test: Anticonvulsant activity in ip dosed Mus musculus (mouse) assessed as protection against subcutaneous pentyleneterazole-induced seizure measured after 0.5 hr; format: functional; conditions: read-out: MED
[7] = test system: Rattus norvegicus; test: CNS depressant activity in Rattus norvegicus Wistar (rat) assessed as immobility time at 100 mg/kg, ip measured after 60 min by forced swim test (reference value: 45.6 +/- 19.45 to 180.97 +/- 14.15 sec); format: functional; conditions: route intraperitoneal
[8] = test system: Mus musculus; test: Anticonvulsant activity in Mus musculus (mouse) assessed as protection against maximal electroshock-induced seizure at 300 mg/kg, ip measured after 4 hr; format: functional, organism-based; design: dose 300 mg/kg
[9] = test system: Mus musculus; test: Anticonvulsant activity in Mus musculus (mouse) assessed as protection against subcutaneous pentyleneterazole-induced seizure at 300 mg/kg, ip measured after 4 hr; format: functional, organism-based; design: dose 300 mg/kg
[10] = test system: Mus musculus; test: Sedative-hypnotic activity in Mus musculus (mouse) assessed as inhibition of locomotory activity at 100 mg/kg, ip measured after 1 hr by actophotometer test; format: functional; conditions: route intraperitoneal
[11] = as §2; format: toxicity, organism-based; conditions: in vivo
[12] = test system: Mus musculus; test: Anticonvulsant activity in Mus musculus (mouse) assessed as protection against subcutaneous pentyleneterazole-induced seizure at 300 mg/kg, ip measured after 0.5 hr; format: functional, organism-based; design: dose 300 mg/kg
[13] = test system: Mus musculus; test: Anticonvulsant activity in Mus musculus (mouse) assessed as protection against maximal electroshock-induced seizure at 300 mg/kg, ip measured after 0.5 hr; format: functional, organism-based; design: dose 300 mg/kg
[14] = as §1; format: toxicity, organism-based; conditions: in vivo

Row | SMILES | minimal effective dose [1] | minimal effective dose [2] | MTC [3] | MTC [4] | minimal effective dose [5] | minimal effective dose [6] | Time [7] | Activity [8] | Activity [9] | inhibition in vivo at 100 mg/kg [10] | MTD at 4 h [11] | Activity [12] | Activity [13] | MTD at 0.5 h [14]
1 | CCC1(c2ccccc2)C(=O)NC(=O)NC1=O [PHENOBARBITAL] | 100 mg/kg | 30 mg/kg | 100 mg/kg | 300 mg/kg | 300 mg/kg | 30 mg/kg | – | – | – | – | – | – | – | –
2 | NC(=O)N1c2ccccc2C=Cc2ccccc21 [CARBAMAZEPINE] | 30 mg/kg | 100 mg/kg | 100 mg/kg | 300 mg/kg | 300 mg/kg | 100 mg/kg | 240.3 s | – | – | – | – | – | – | –
3 | Cc1nc2ccccc2c(=O)n1NC(=O)Nc1ccc(Cl)cc1 | 300 mg/kg | – | 300 mg/kg | 300 mg/kg | – | 300 mg/kg | 204.7 s | inactive | inactive | 48% | – | – | – | –
4 | Cc1nc2ccccc2c(=O)n1NC(=O)Nc1ccc(Br)cc1 | 300 mg/kg | – | 300 mg/kg | – | – | 300 mg/kg | 70.63 s | inactive | inactive | 51% | 300 mg/kg | – | – | –
5 | O=C1NC(=O)C(c2ccccc2)(c2ccccc2)N1 [PHENYTOIN] | 30 mg/kg | 30 mg/kg | 100 mg/kg | 100 mg/kg | – | – | – | – | inactive | 70% | – | inactive | – | –
6 | Cc1ccc(NC(=O)Nn2c(C)nc3ccccc3c2=O)cc1 | – | – | – | – | – | – | 210.29 s | inactive | inactive | 52% | 300 mg/kg | inactive | inactive | 300 mg/kg
7 | COc1ccc(NC(=O)Nn2c(C)nc3ccccc3c2=O)cc1 | – | – | – | – | – | – | 202.29 s | inactive | inactive | 42% | 300 mg/kg | inactive | inactive | 300 mg/kg
8 | Cc1nc2ccccc2c(=O)n1NC(=O)Nc1ccc(F)cc1 | – | – | – | – | – | – | 188.16 s | inactive | inactive | 45% | 300 mg/kg | inactive | inactive | 300 mg/kg
9 | Cc1ccccc1NC(=O)Nn1c(C)nc2ccccc2c1=O | – | – | – | – | – | – | 226.29 s | inactive | inactive | 51% | 300 mg/kg | inactive | inactive | 300 mg/kg
